From patent US10683295B2, “Chiral N-acyl-5,6,7(8-substituted)-tetrahydro-[1,2,4]triazolo[4,3-A]pyrazines as selective NK-3 receptor antagonists, pharmaceutical composition, methods for use in NK-3 receptor mediated disorders and chiral synthesis thereof” (Ogeda SA, priority 2011, dated 2020)

Tested on: luteinizing hormone (LH) plasma levels
Assay: Castrated male rat model, circulating luteinizing hormone (LH)
Type: in vivo
Conditions: single intravenous 10 mg/kg dose, castrated male Sprague-Dawley rats, 1 hour after dosing
Excerpt: Castrated Male Rat Model to Assess the Effect of Compound of Invention on Circulating Levels of Luteinizing Hormone (LH).
Thus, a castrated rat model is used to provide a broad index for measurement of LH inhibition as a marker of test compound inhibition of the GnRH signaling pathway.
Castrated adult male Sprague-Dawley (SD) rats (150-175 g) were purchased from Janvier (St Berthevin, France). […] The animals were allowed 2 weeks of postoperative recovery prior to study. Animals were handled on a daily basis. Standard diet and tap water were provided ad libitum. […] On the study day, animals were acclimated to the procedure room for a period of one hour prior to the initiation of the experiment.
Compounds of the invention were formulated as apyrogen water with 90 g/L (2-Hydroxypropyl)-β-CycloDextrin.
After basal sampling (TO) a single dose of compounds of the invention or vehicle was administrated intravenously to rats. Blood was then collected at 60 min post dosing. Blood samples were obtained via tail vein bleed, drawn into EDTA-containing tubes and centrifuged immediately. […] Serum LH levels were determined using radioimmunoassay kit from RIAZEN—Rat LH, Zentech (Liege, Belgium). Baseline was defined as the initial basal blood sample.

Structure (SMILES)	circulating LH levels
Cc1nc(-c2nnc3n2CCN(C(=O)c2ccc(-c4cccs4)cc2)[C@@H]3C)cs1 [Compound 1, (R)-(8-methyl-3-(2-methylthiazol-4-yl)-5,6-dihydro-[1,2,4]triazolo[4,3-a]pyrazin-7(8H)-yl)(4-(thiophen-2-yl)phenyl) methanone]	significantly suppressed
Cc1csc(-c2nnc3n2CCN(C(=O)c2ccc(-c4cccs4)cc2)[C@@H]3C)n1 [Compound 19, (R)-(8-methyl-3-(4-methylthiazol-2-yl)-5,6-dihydro-[1,2,4]triazolo[4,3-a]pyrazin-7(8H)-yl)(4-(thiophen-2-yl)phenyl)methanone]	significantly suppressed
